Laboratory results published in the NIST ThermoML archive (doi:10.1016/j.jct.2010.04.001).
“And” between values parts separate entries of the source, which are not always exact repeats. Equal entries are not always repeated.

Conditions: Crystal, Calculated from knudsen effusion weight loss

O=C(c1ccc[nH]1)C(F)(F)F [2-trifluoroacetylpyrrole]
Conditions | vapor or sublimation pressure
263.19 K | 0.000433 kPa and 0.000414 kPa and 0.000406 kPa
264.14 K | 0.00048 kPa and 0.000469 kPa
265.11 K | 0.000533 kPa and 0.000531 kPa
266.12 K | 0.000597 kPa and 0.00064 kPa and 0.000623 kPa
267.12 K | 0.000716 kPa and 0.00069 kPa and 0.00067 kPa
268.12 K | 0.000809 kPa and 0.000796 kPa and 0.000771 kPa
269.11 K | 0.0009 kPa and 0.000894 kPa and 0.000866 kPa
270.11 K | 0.001022 kPa and 0.000993 kPa
271.13 K | 0.001147 kPa and 0.00113 kPa and 0.001101 kPa

O=C(c1ccc[nH]1)C(Cl)(Cl)Cl [2-trichloroacetyl-1H-pyrrole]
Conditions | vapor or sublimation pressure
295.12 K | 0.000103 kPa and 9.92e-05 kPa and 0.000101 kPa
297.17 K | 0.000132 kPa and 0.000129 kPa
299.22 K | 0.000169 kPa and 0.000165 kPa and 0.000162 kPa
301.14 K | 0.000213 kPa and 0.000218 kPa
303.23 K | 0.000274 kPa and 0.000272 kPa and 0.000268 kPa
305.2 K | 0.000344 kPa and 0.000336 kPa and 0.000335 kPa
307.1 K | 0.000434 kPa and 0.00043 kPa and 0.000424 kPa
309.13 K | 0.000539 kPa and 0.000531 kPa and 0.000527 kPa
311.21 K | 0.000674 kPa and 0.000661 kPa and 0.000652 kPa
313.11 K | 0.000861 kPa and 0.000843 kPa and 0.000837 kPa
315.16 K | 0.00106 kPa and 0.001043 kPa and 0.001028 kPa
317.2 K | 0.001327 kPa and 0.001289 kPa and 0.00127 kPa
